Consider two compounds from patent EP0499581B1, “Stabilized polymer composition” (Ciba Specialty Chemicals Holding Inc., priority 1991, dated 1992).

Each structure is given as a SMILES string.

Common to all, as to type: physicochemical
Data set [1] in a line: Yellowing (ASTM D 1925) after UV exposure in Weather-O-meter WRC 600, ABS/SAN/polycarbonate blend (Example 1). To be noted: Weather-O-meter WRC 600, 2 mm plates. As to the method:
Dieses Copolymer wird in Pulverform mit derselben Menge von Styrolacrylnitril-copolymer (Suspension SAN, Ube Cycon) und der doppelten Menge von pulverförmigem Polycarbonat (PC 135, General Electric), mit gegebenenfalls weiteren Additiven, wie z.B. einem UV-Absorber, in einem Rhönrad vermischt. Die Mischung wird in einem Zweischnecken-Extruder (Temperatur-Zyklus: 165°C, 250°C, 275°C, 275°C, 270°C; Umdrehungen/Minute: 45) hergestellt.
Die erhaltenen Mischungen werden in einer Heizpresse bei 200°C zu 2 mm starken Platten gepresst. Aus den Platten werden Prüfkörper von 40 x 40 x 2 mm ausgeschnitten. Diese werden in einem Weather-O-meter® WRC 600 mit UV-Licht belichtet. In regelmässigen Abständen werden Proben entnommen und deren Vergilbung gemäss ASTM D 1925 gemessen.
Die mit der Belichtungszeit einhergehende Vergilbung, ausgedrückt in ΔYI (YI = Yellowness Index; ΔYI = Unterschied in YI-Wert zwischen unbelichteter und entsprechender belichteter Probe) und nach der angegebenen Methode ermittelt, ist in der Tabelle 1 wiedergegeben.

Data set [2] can be described thus: Yellowing (ASTM D 1925) after oven ageing, ABS/PBT blend (Example 3). As to the method: Beispiel 3: Das ABS-Copolymer Granulat gemäss Beispiel 2 wird mit derselben Menge Polybutylenterephtahlat, (PBT CRASTIN® S 600, Ciba-Geigy) vermischt. Das Polymerblend wird in einem Zweischnecken-Extruder (Temperatur-Zyklus: 210°C/230°C/ 235°C/ 240°C) hergestellt. Proben von 12,7 x 60,0 x 2,0 mm werden in einer Arburg-Spritzgussanlage gespritzt bei einer maximalen Verarbeitungstemperatur von 260°C. Diese Plättchen werden in einem Ofen bei 200°C und bei 160°C gealtert. In regelmässigen Abständen werden die Proben entnommen und deren Vergilbung gemäss ASTM D 1925 gemessen.

Data set [3] in a line: Impact bending strength (ASTM D 4508-85) after UV exposure in Xenotest 450, ABS/SAN/polycarbonate blend (Example 2). Set-up: key to Schlagbiegefestigkeit in kJ/m^2 nach 200 Stunden in Xenotest 450: KB = Kein Bruch. The conditions noted are these: energy required to break. The method, then:
(§1) Beispiel 2: Das ABS-Copolymer gemäss Beispiel 1 wird in Pulverform mit derselben Menge von Styrolacrylnitril-Copolymer (Suspension SAN, Kostil, Montedipe), mit gegebenenfalls weiteren Additiven, wie z.B. einem UV-Absorber (Tinuvin® 234, Ciba-Geigy AG) und einem Phosphit (Irgafos® 168, Ciba-Geigy AG), in einem Rhönrad vermischt. Die Mischung wird in einem Zweischnecken-Extruder (Temperatur-Zyklus : 210°C/ 210°C/ 215°C/ 220°C) verarbeitet und granuliert.
(§2) Das erhaltene ABS-Granulat wird mit derselben Menge von Polycarbonat-Granulat (PC Calibre®, Dow) vermischt. Das Polymerblend wird in einem Zweischnecken-Extruder (Temperatur Zyklus : 240°C/ 240°C/ 250°C) hergestellt.
Weitere Prüfkörper von 12,7 x 60,0 x 2,0 mm werden in einem Xenotest 450 mit UV-Licht belichtet. In regelmässigen Abständern werden Proben entnommen und deren Schlagbiegefestigkeit gemäss Methode ASTM D 4508-85 gemessen. Dabei erfolgt der Pendelschlag auf die belichtete Seite der Probe.
In Tabelle 3 ist die für den Bruch der Probe erforderliche Energie angegeben. Je höher dieser Wert ist, desto höher ist die Schlagbiegefestigkeit der Probe. Bei ungeschädigten Proben erfolgt kein Bruch.

Data set [4] in a line: Yellowing (ASTM D 1925) after UV exposure in Weather-Ometer WRC 600, ABS/SAN/polycarbonate blend (Example 2). To be noted: Weather-Ometer WRC 600, 2 mm plates. As to the method:
as §1, §2
Die erhaltenen Mischungen (Blends) werden in einer Heizpresse bei 200°C zu 2 mm starken Platten gepresst. Aus den Platten werden Prüfkörper von 40 x 40 x 2 mm ausgeschnitten. Diese Plättchen werden in einem Weather-Ometer® WRC 600 mit UV-Licht belichtet. In regelmässigen Abständen werden Proben entnommen und deren Vergilbung (oder Yellowness Index) gemäss Methode ASTM D 1925 gemessen.
Die mit der Belichtungszeit einhergehende Vergilbung is in der Tabelle 2 wiedergegeben.

As to `CC(C)(c1ccccc1)c1cc(-n2nc3ccccc3n2)c(O)c(C(C)(C)c2ccccc2)c1` [0,3 % UV- Absorber *], the “Δ YI nach Belichtungszeit von 250 h” value in data set [1] (250 h UV) is listed as -7,0. Also, the “Δ YI nach Belichtungszeit von 500 h” value in data set [1] (500 h UV) was -3,0. Further, in data set [1] (1000 h UV), the “Δ YI nach Belichtungszeit von 1000 h” value is on record as 7,5. Also, the “Δ YI nach Belichtungszeit von 1250 h” value in data set [1] (1250 h UV) is 12,1. Moreover, the “Δ YI nach Belichtungszeit von 1500 h” value in data set [1] (1500 h UV) is on record as 14,9.
On to `CC(C)(c1ccccc1)c1cc(-n2nc3ccccc3n2)c(O)c(C(C)(C)c2ccccc2)c1` [0,50 % TINUVIN® 234], for which the “Δ YI nach Ofenalterung bei 160°C nach 60 min” value in data set [2] (oven 160°C, 60 min) is 4,7. The “Δ YI nach Ofenalterung bei 160°C nach 90 min” value in data set [2] (oven 160°C, 90 min) is 10,8. Moreover, the “Δ YI nach Ofenalterung bei 160°C nach 120 min” value in data set [2] (oven 160°C, 120 min) is recorded as 11,6. For the same compound, the “Δ YI nach Ofenalterung bei 160°C nach 160 min” value in data set [2] (oven 160°C, 160 min) is 20,4. For the same compound, the “Δ YI nach Ofenalterung bei 160°C nach 840 min” value in data set [2] (oven 160°C, 840 min) is 56,3. Also, the “Δ YI nach Ofenalterung bei 200°C nach 10 min” value in data set [2] (oven 200°C, 10 min) was 6,0. Moreover, the “Δ YI nach Ofenalterung bei 200°C nach 20 min” value in data set [2] (oven 200°C, 20 min) was 16,4. Besides, the “Δ YI nach Ofenalterung bei 200°C nach 40 min” value in data set [2] (oven 200°C, 40 min) is on record as 33,1. Further, the “Δ YI nach Ofenalterung bei 200°C nach 60 min” value in data set [2] (oven 200°C, 60 min) is 43,9. Moreover, the “Δ YI nach Ofenalterung bei 200°C nach 90 min” value in data set [2] (oven 200°C, 90 min) was 55,3. The “Schlagbiegefestigkeit in kJ/m^2 nach 200 Stunden in Xenotest 450” value in data set [3] (200 h Xenotest 450) is reported as “KB”. The “Schlagbiegefestigkeit in kJ/m^2 nach 300 Stunden in Xenotest 450” value in data set [3] (300 h Xenotest 450) amounted to 15±2 kJ/m^2. Moreover, in data set [3] (500 h Xenotest 450), the “Schlagbiegefestigkeit in kJ/m^2 nach 500 Stunden in Xenotest 450” value is reported as 13±1 kJ/m^2. Further, the “Schlagbiegefestigkeit in kJ/m^2 nach 1000 Stunden in Xenotest 450” value in data set [3] (1000 h Xenotest 450) was 11±1 kJ/m^2. In data set [3] (1500 h Xenotest 450), the “Schlagbiegefestigkeit in kJ/m^2 nach 1500 Stunden in Xenotest 450” value came to 11±1 kJ/m^2. For the same compound, the “Δ YI nach Belichtungszeit von 500 h” value in data set [4] (500 h UV) is -7. For the same compound, the “Δ YI nach Belichtungszeit von 1000 h” value in data set [4] (1000 h UV) is 1,1. Also, the “Δ (YI) nach Belichtungszeit von 2000 h” value in data set [4] (2000 h UV) is on record as 16,1. Further, the “Δ (YI) nach Belichtungszeit von 3000 h” value in data set [4] (3000 h UV) was 23,4. For the same compound, the “Δ (YI) nach Belichtungszeit von 4000 h” value in data set [4] (4000 h UV) is listed as 23,9.
